# Measured values from patent US11578061B2, “Inhibitors of LRRK2 kinase” (Halia Therapeutics, Inc., priority 2021, dated 2023).
# pIC50: −log10 of the molar value.
# Biological target: recombinant human LRRK2 (catalytic domain only [amino acids 970-2527], GST-tagged) (Homo sapiens (Human), UniProt Q5S007)
# Test: LRRK2 Enzymatic Assay
# Type: biochemical
# Conditions: LRRKtide substrate, [32P]-ATP
# Procedure: LRRKtide substrate (peptide sequence RLGRDKYKTLRQIRQ, derived from human ezrin [amino acids 561-573], moesin [amino acids 539-553] and radixin [amino acids 558-570], obtained from SignalChem, catalogue #L10-58, reconstituted in 20 mM Tris-HCl at pH 7.5 to a final concentration of 1 mg/mL, assay concentration 20 μM) and recombinant human LRRK2 (catalytic domain only [amino acids 970-2527], GST-tagged, expressed in insect cells, obtained from ThermoFisher Scientific, catalogue #PV4874, 0.35 mg/mL, assay concentration 30 nM) were mixed in assay buffer (20 mM Hepes pH 7.5, 10 mM MgCl2, 1 mM EGTA, 0.02% Brij35, 0.02 mg/ml BSA, 0.1 mM Na3VO4, 2 mM DTT, 1% DMSO). Compounds of interest (in DMSO, serial 3-fold dilution from 10 μM to 0.5 nM) or control (1% DMSO) were dispensed into the kinase reaction mixture by Acoustic technology (Echo550; nanoliter range). After incubation at room temperature for 20 minutes, the kinase reaction was initiated by addition of [^32P]-ATP (Specific activity 10 μCi/μl) and the mixture was incubated at room temperature for 2 hours. The reaction was then stopped by spotting the reaction mixture on strips of phosphocellulose P81 paper. Following washing, the radioactivity of the P81 paper was measured and kinase activity data were expressed as the percent remaining kinase activity in test samples compared to vehicle (dimethyl sulfoxide) reactions. IC50 values and curve fits were obtained using Prism (GraphPad Software).
# recombinant human LRRK2 (catalytic domain only [amino acids 970-2527], GST-tagged), sequence (Q5S007 970-2527): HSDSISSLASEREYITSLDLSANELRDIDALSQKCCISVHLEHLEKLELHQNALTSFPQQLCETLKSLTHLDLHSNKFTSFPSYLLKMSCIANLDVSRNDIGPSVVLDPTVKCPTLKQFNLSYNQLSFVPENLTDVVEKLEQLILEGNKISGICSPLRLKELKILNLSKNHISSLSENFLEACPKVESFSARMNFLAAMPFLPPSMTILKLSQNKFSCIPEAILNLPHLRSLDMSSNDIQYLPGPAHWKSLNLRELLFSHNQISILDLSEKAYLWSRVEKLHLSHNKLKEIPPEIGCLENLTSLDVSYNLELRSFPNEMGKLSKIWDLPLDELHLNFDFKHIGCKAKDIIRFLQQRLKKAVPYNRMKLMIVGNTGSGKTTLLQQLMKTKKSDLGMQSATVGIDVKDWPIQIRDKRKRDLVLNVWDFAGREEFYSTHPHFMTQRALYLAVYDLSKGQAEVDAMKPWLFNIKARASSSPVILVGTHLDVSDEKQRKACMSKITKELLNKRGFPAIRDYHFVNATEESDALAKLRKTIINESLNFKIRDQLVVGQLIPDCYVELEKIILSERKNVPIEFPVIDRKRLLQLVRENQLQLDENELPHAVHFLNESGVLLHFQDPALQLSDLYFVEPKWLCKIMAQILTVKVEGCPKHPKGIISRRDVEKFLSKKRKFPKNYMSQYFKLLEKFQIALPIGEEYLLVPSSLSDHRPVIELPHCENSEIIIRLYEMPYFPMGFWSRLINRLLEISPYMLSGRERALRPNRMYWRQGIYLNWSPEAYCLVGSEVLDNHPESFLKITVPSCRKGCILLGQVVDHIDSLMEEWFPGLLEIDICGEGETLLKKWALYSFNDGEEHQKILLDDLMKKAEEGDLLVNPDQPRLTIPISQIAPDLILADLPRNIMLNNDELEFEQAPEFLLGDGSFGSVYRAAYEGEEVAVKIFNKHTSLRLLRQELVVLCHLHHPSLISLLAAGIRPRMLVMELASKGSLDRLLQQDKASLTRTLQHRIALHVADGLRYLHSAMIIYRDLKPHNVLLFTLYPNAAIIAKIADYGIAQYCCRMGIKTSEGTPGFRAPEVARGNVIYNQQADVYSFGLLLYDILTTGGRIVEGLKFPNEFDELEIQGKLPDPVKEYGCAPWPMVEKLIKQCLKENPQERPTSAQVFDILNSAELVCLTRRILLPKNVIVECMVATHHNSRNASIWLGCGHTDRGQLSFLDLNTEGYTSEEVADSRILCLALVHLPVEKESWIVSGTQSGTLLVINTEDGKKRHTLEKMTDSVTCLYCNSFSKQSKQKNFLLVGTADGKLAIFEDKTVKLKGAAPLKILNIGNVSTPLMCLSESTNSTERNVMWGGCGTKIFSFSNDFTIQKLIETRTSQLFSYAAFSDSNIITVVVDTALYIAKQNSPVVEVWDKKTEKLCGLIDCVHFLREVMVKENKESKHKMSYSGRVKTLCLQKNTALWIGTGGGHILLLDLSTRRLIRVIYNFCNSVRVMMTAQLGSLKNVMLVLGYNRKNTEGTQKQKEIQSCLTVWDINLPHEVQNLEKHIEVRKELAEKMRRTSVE
row,pIC50,SMILES
1,6.70 to 7.30,"CN[C@H]1CC[C@H](COc2nc(Nc3ccc(N4CCOCC4)cc3)ncc2C2CC2)CC1 [Example 45, 5-cyclopropyl-4-(((1R,4R)-4-(methylamino)cyclo-hexyl)methoxy)-N-(4-morpholinophenyl) pyrimidin-2-amine]"
2,6.40 to 6.70,"CNC1CCCC(COc2ccnc(Nc3ccc(N4CCOCC4)cc3)n2)C1 (stereo not drawn) [Example 47, 4-((3-(methylamino)cyclo-hexyl)methoxy)-N-(4-morpholinophenyl) pyrimidin-2-amine]"
3,6.70 to 7.30,"CNC[C@H]1CC[C@H](COc2ccnc(Nc3ccc(N4CCOCC4)cc3)n2)CC1 [Example 48, 4-(((1R,4R)-4-((methylamino)methyl)cyclohexyl)methoxy)-N-(4-morpholinophenyl)py-rimidin-2-amine]"
4,> 7.30,"CNC[C@H]1CC[C@H](COc2nc(Nc3ccc(N4CCOCC4)cc3)ncc2Cl)CC1 [Example 49, 5-chloro-4-(((1R,4R)-4-((methylamino)methyl)cyclohexyl)methoxy)-N-(4-morpholinophenyl)py-rimidin-2-amine]"
5,> 7.30,"CNC[C@H]1CC[C@H](COc2nc(Nc3cnn(C4CC(C#N)C4)c3C)ncc2Cl)CC1 (stereo partly drawn) [Example 50, 3-(4-((5-chloro-4-(((1R,4R)-4-((methylamino)methyl)cyclohexyl)methoxy)pyrimidin-2-yl)amino)-5-methyl-1H-pyrazol-1-yl)cyclobutane-1-carbonitrile]"
6,> 7.30,"CNC[C@H]1CC[C@H](COc2nc(Nc3cn(C4CC(C#N)C4)nc3C)ncc2Cl)CC1 (stereo partly drawn) [Example 51, 3-(4-((5-chloro-4-(((1R,4R)-4-((methylamino)methyl)cyclohexyl)methoxy)pyrimidin-2-yl)amino)-3-methyl-1H-pyrazol-1-yl)cyclobutane-1-carbonitrile]"
7,> 7.30,"CN[C@H]1CC[C@@H](COc2nc(Nc3cnn(C4CC(C#N)C4)c3C)ncc2Cl)C1 (stereo partly drawn) [Example 52, 3-(4-((5-chloro-4-(((1R,3S)-3-(methylamino)cyclo-pentyl)methoxy)py-rimidin-2-yl)amino)-5-methyl-1H-pyrazol-1-yl)cyclobutane-1-carbonitrile]"
8,> 7.30,"CN[C@H]1CC[C@@H](COc2nc(Nc3cn(C4CC(C#N)C4)nc3C)ncc2Cl)C1 (stereo partly drawn) [Example 53, 3-(4-((5-chloro-4-(((1R,3S)-3-(methylamino)cyclo-pentyl)methoxy)py-rimidin-2-yl)amino)-3-methyl-1H-pyrazol-1-yl)cyclobutane-1-carbonitrile]"
9,6.40 to 6.70,"CNC1(COc2nc(Nc3ccc(N4CCOCC4)cc3)ncc2Cl)CC1 [Example 54, 5-chloro-4-((1-(methylamino)cyclo-propyl)methoxy)-N-(4-morpholinophenyl)py-rimidin-2-amine]"
10,> 7.30,"COc1cnc(Nc2ccc(N3CCOCC3)cc2)nc1OC[C@H]1CC[C@H](N(C)C)CC1 [Example 55, 4-(((1R,4R)-4-(dimethylamino)cyclo-hexyl)methoxy)-5-methoxy-N-(4-morpholinophenyl)py-rimidin-2-amine]"
11,> 7.30,"CN1CCC(COc2nc(Nc3ccc(N4CCOCC4)cc3)ncc2Cl)CC1 [Example 56, 5-chloro-4-((1-methylpiperidin-4-yl)methoxy)-N-(4-morpholinophenyl)py-rimidin-2-amine]"
12,6.70 to 7.30,"Cc1nn(C(C)(C)C#N)cc1Nc1ncc(Cl)c(OCC2CCN(C)CC2)n1 [Example 57, 2-(4-((5-chloro-4-((1-methylpiperidin-4-yl)methoxy)pyrimidin-2-yl)amino)-3-methyl-1H-pyrazol-1-yl)-2-methylpropanenitrile]"
13,> 7.30,"Cc1c(Nc2ncc(Cl)c(OCC3CCN(C)CC3)n2)cnn1C1CC(C#N)C1 (stereo not drawn) [Example 58, 3-(4-((5-chloro-4-((1-methylpiperidin-4-yl)methoxy)pyrimidin-2-yl)amino)-5-methyl-1H-pyrazol-1-yl)cyclobutane-1-carbonitrile]"
14,6.40 to 6.70,"Cc1nn(C2CC(C#N)C2)cc1Nc1ncc(Cl)c(OCC2CCN(C)CC2)n1 (stereo not drawn) [Example 59, 3-(4-((5-chloro-4-((1-methylpiperidin-4-yl)methoxy)pyrimidin-2-yl)amino)-3-methyl-1H-pyrazol-1-yl)cyclobutane-1-carbonitrile]"
15,< 6.40,"Cc1nn(C(C)(C)C#N)cc1Nc1nccc(OCC2(F)CCN(C)CC2)n1 [Example 60, 2-(4-((4-((4-fluoro-1-methylpiperidin-4-yl)methoxy)pyrimidin-2-yl)amino)-3-methyl-1H-pyrazol-1-yl)-2-methylpropanenitrile]"
16,> 7.30,"Cc1nn(C(C)(C)C#N)cc1Nc1ncc(Cl)c(OCC2(F)CCN(C)CC2)n1 [Example 61, 2-(4-((5-chloro-4-((4-fluoro-1-methylpiperidin-4-yl)methoxy)pyrimidin-2-yl)amino)-3-methyl-1H-pyrazol-1-yl)-2-methylpropanenitrile]"
17,6.40 to 6.70,"Cc1nn(C2CC(C#N)C2)cc1Nc1ncc(Cl)c(OCC2(F)CCN(C)CC2)n1 (stereo not drawn) [Example 62, 3-(4-((5-chloro-4-((4-fluoro-1-methylpiperidin-4-yl)methoxy)pyrimidin-2-yl)amino)-3-methyl-1H-pyrazol-1-yl)cyclobutane-1-carbonitrile]"
18,< 6.40,"Cc1nn(C2CC(C#N)C2)cc1Nc1ncc(Cl)c(OCC2CCN(C)CC2F)n1 (stereo not drawn) [Example 63, 3-(4-((5-chloro-4-((3-fluoro-1-methylpiperidin-4-yl)methoxy)pyrimidin-2-yl)amino)-3-methyl-1H-pyrazol-1-yl)cyclobutane-1-carbonitrile]"
19,< 6.40,"CN1CCC(F)(COc2nc(Nc3ccc(N4CCOCC4)cc3)ncc2F)CC1 [Example 64, 5-fluoro-4-((4-fluoro-1-methylpiperidin-4-yl)methoxy)-N-(4-morpholinophenyl)py-rimidin-2-amine]"
20,6.70 to 7.30,"C[C@@H]1CN(c2ccc(Nc3ncc(F)c(OCC4(F)CCN(C)CC4)n3)cc2)C[C@H](C)O1 [Example 65, N-(4-((2R,6S)-2,6-dimethylmorpholino)phenyl)-5-fluoro-4-((4-fluoro-1-methylpiperidin-4-yl)methoxy)pyrimidin-2-amine]"
21,< 6.40,"Cc1nn(C(C)(C)C#N)cc1Nc1ncc(F)c(OCC2(F)CCN(C)CC2)n1 [Example 66, 2-(4-((5-fluoro-4-((4-fluoro-1-methylpiperidin-4-yl)methoxy)pyrimidin-2-yl)amino)-3-methyl-1H-pyrazol-1-yl)-2-methylpropanenitrile]"
22,< 6.40,"Cc1nn(C(C)(C)C#N)cc1Nc1ncc(F)c(OCC2CCN(C)CC2)n1 [Example 67, 2-(4-((5-fluoro-4-((1-methylpiperidin-4-yl)methoxy)pyrimidin-2-yl)amino)-3-methyl-1H-pyrazol-1-yl)-2-methylpropanenitrile]"
23,< 6.40,"Cc1nn(C(C)(C)C#N)cc1Nc1ncc(Cl)c(OCC2CN(C)C2)n1 [Example 68, 2-(4-((5-chloro-4-((1-methylazetidin-3-yl)methoxy)pyrimidin-2-yl)amino)-3-methyl-1H-pyrazol-1-yl)-2-methylpropanenitrile]"
24,< 6.40,"Cc1nn(C2CC(C#N)C2)cc1Nc1ncc(Cl)c(OCC2(F)CN(C)C2)n1 (stereo not drawn) [Example 69, 3-(4-((5-chloro-4-((3-fluoro-1-methylazetidin-3-yl)methoxy)pyrimidin-2-yl)amino)-3-methyl-1H-pyrazol-1-yl)cyclobutane-1-carbonitrile]"
25,> 7.30,"Cc1nn(C(C)(C)C#N)cc1Nc1ncc(Cl)c(OCC2CC3(C2)CN(C)C3)n1 [Example 70, 2-(4-((5-chloro-4-((2-methyl-2-azaspiro[3.3]heptan-6-yl)methoxy)pyrimidin-2-yl)amino)-3-methyl-1H-pyrazol-1-yl)-2-methylpropanenitrile]"
26,< 6.40,"CC1(C(=O)N[C@H]2CC[C@H](COc3ccnc(Nc4ccc(N5CCOCC5)cc4)n3)CC2)CC1 [Example 71, 1-methyl-N-((1R,4R)-4-(((2-((4-morpholinophenyl)amino)pyrimidin-4-yl)oxy)methyl)cyclo-hexyl)cyclopropane-1-carboxamide]"
27,6.70 to 7.30,"CC(=O)N[C@H]1CC[C@H](COc2ccnc(Nc3ccc(N4CCOCC4)cc3)n2)CC1 [Example 72, N-((1R,4R)-4-(((2-((4-morpholinophenyl)amino)pyrimidin-4-yl)oxy)methyl)cyclo-hexyl)acetamide]"
28,6.70 to 7.30,"CC(=O)N[C@H]1CC[C@H](COc2ccnc(Nc3ccc(N4C[C@@H](C)O[C@@H](C)C4)cc3)n2)CC1 [Example 73, N-((1R,4R)-4-(((2-((4-((2R,6S)-2,6-dimethylmorpholino)phenyl)amino)pyrimidin-4-yl)oxy)methyl)cyclo-hexyl)acetamide]"
29,6.70 to 7.30,"CC(=O)N[C@H]1CC[C@H](COc2ccnc(Nc3cn(C(C)(C)C#N)nc3C)n2)CC1 [Example 74, N-((1R,4R)-4-(((2-((1-(2-cyanopropan-2-yl)-3-methyl-1H-pyrazol-4-yl)amino)pyrimidin-4-yl)oxy)methyl)cyclo-hexyl)acetamide]"
30,< 6.40,"CC(=O)N[C@H]1CC[C@H](COc2ccnc(Nc3cn(C4CC(C#N)C4)nc3C)n2)CC1 (stereo partly drawn) [Example 75, N-((1R,4R)-4-(((2-((1-(3-cyanocyclobutyl)-3-methyl-1H-pyrazol-4-yl)amino)pyrimidin-4-yl)oxy)methyl)cyclo-hexyl)acetamide]"
